Results on 3 compounds are retold here after article PMC8270344, “Enantioenriched Positive Allosteric Modulators Display Distinct Pharmacology at the Dopamine D1 Receptor” (Molecules, 2021).

SMILES strings stand for the structures.

In this assay the target is T1, dopamine D1 receptor (hD1R) (Homo sapiens, UniProt P21728).
T1 construct: gene DRD1; hD1R stably expressed in FlpIn CHO cells
T1 sequence (P21728 whole entry): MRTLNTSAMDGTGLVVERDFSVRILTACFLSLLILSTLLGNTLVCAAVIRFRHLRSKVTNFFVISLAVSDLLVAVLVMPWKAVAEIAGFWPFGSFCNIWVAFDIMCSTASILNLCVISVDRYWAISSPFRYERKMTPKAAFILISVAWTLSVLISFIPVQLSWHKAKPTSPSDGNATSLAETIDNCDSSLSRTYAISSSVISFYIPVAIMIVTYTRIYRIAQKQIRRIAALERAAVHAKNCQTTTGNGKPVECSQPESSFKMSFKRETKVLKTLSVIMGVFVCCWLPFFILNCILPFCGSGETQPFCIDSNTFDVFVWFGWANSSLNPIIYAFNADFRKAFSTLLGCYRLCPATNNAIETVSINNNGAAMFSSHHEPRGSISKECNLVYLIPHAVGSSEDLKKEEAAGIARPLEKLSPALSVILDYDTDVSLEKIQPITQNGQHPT
Briefly: cAMP BRET (CAMYEL) assay with dopamine curves, operational model of allostery (functional KB). Format: cell-based. The settings on record: read-out: pKB (KB, μM) ^1 (converted). For orientation: Bioluminescence resonance energy transfer reports proximity on the nanometre scale.
As for `Cc1ccc(Cl)c(NC(=O)C2(C)CC3c4ccccc4C2c2ccccc23)c1Cl` (racemic) [rac-2, rel-(9R,10R,12S)-N-(2,6-Dichloro-3-methylphenyl)-12-methyl-9,10-dihydro-9,10-ethanoanthracene-12-carboxamide], the Kb is 1.6 µM.

Consider `Cc1ccc(Cl)c(NC(=O)[C@]2(C)C[C@H]3c4ccccc4[C@@H]2c2ccccc23)c1Cl` [(R)-2, (9R,10S,12S)-N-(2,6-Dichloro-3-methylphenyl)-12-methyl-9,10-dihydro-9,10-ethanoanthracene-12-carboxamide], for which the Kb was 7.6 µM.

Take `Cc1ccc(Cl)c(NC(=O)[C@@]2(C)C[C@H]3c4ccccc4[C@@H]2c2ccccc23)c1Cl` [(S)-2, (9S,10R,12R)-N-(2,6-Dichloro-3-methylphenyl)-12-methyl-9,10-dihydro-9,10-ethanoanthracene-12-carboxamide]: the Kb was 1 µM.
